Entries after “also recorded” stand apart in the source; their conditions may differ.
Experiments:
[1] = system: alertness/sedation; assay: MOAA/S (Modified Observer's Assessment Alertness/Sedation); format: in vivo, human (healthy volunteers)
Experimental: (§1) A clinical study was developed to evaluate safety, tolerability, pharmacokinetics, and pharmacodynamics of Compound 1 at plasma steady-state in 40 healthy human volunteers. Compound 1 (provided as Compound 1 phosphate) was administered to participants as multiple ascending doses of 0.5 mg (N=6), 1.0 mg (N=6), 1.5 mg (N=6), 2.0 mg (N=6), or 5.0 mg (N=6) once daily (QD) for 12 days.
Safety and tolerability of Compound 1 were assessed through listings and summaries by Compound 1 dose versus placebo (observed and change from baseline where applicable) for the following measures: treatment-emergent adverse events (TEAEs), clinical laboratory evaluation, vital signs, electrocardiogram, physical examination, pregnancy test, C-SSRS, and MOAA/S (Modified Observer's Assessment Alertness/Sedation). Continuous safety data were summarized with descriptive statistics (n, arithmetic mean, standard deviation (SD), median, minimum, and maximum) by dose level. Categorical safety data were summarized with incidence counts and percentages by dose level.
No clear difference from placebo in sedation across ascending Cohorts according to objective MOAA/S (Modified Observer's Assessment Alertness/Sedation) scoring was observed. A decrease in the MOAA/S score for alertness/sedation indicates impaired participant alertness and increased sedation as objectively determined by a clinician. […] For Compound 1 5.0 mg, a MOAA/S score of 2 (“Responds only after mild prodding or shaking”) was assessed for 1 participant. For the other participants in the Compound 1 5.0 mg Cohort and all other Cohorts, MOAA/S scores were above 3 indicating no difference from placebo in sedation across ascending Cohorts.

[2] = molecular target: human GABAA receptor α1/β3/γ2 (Homo sapiens, UniProt P14867+P18507); assay: SyncroPatch platform, PAM mode, GABAA α1/β3/γ2
Chain of human GABAA receptor α1/β3/γ2 (P14867 28-456): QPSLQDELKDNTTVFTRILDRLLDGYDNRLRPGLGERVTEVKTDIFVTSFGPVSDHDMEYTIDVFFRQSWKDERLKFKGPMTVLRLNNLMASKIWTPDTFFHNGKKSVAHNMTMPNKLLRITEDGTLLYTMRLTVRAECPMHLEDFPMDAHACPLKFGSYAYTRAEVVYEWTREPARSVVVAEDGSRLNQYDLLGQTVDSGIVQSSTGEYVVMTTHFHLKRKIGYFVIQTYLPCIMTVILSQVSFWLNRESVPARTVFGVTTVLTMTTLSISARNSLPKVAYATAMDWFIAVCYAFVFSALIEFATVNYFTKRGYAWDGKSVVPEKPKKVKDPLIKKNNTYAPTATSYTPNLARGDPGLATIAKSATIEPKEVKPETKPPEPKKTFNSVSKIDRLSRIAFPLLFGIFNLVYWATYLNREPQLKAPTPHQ
Chain of human GABAA receptor α1/β3/γ2 (P18507 40-475): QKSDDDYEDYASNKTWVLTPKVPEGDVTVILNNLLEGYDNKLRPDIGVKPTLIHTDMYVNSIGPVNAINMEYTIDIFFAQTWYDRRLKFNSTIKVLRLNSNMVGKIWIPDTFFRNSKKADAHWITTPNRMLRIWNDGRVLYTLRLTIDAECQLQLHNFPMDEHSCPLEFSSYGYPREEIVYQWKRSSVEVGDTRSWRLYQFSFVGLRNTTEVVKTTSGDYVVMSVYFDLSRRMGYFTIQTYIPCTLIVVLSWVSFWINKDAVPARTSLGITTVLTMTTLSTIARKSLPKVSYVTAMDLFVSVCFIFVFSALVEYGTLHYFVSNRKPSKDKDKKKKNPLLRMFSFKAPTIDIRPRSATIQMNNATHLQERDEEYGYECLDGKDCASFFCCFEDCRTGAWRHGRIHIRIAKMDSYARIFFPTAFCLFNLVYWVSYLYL
Chain of human GABAA receptor α1/β3/γ2 (P28472 26-473 partner): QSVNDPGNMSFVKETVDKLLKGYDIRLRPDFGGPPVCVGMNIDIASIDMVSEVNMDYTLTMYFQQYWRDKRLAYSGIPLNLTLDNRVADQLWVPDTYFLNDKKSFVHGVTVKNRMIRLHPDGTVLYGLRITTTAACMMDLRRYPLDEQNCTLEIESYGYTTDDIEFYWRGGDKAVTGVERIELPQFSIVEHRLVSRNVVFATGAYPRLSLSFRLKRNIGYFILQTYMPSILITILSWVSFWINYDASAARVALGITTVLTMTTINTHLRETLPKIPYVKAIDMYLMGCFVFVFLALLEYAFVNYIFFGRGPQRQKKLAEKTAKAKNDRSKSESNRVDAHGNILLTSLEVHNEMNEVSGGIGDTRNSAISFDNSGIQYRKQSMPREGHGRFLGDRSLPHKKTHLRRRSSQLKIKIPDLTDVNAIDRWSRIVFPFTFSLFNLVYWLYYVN

[3] = molecular target: human GABAA receptor α3/β3/γ2 (Homo sapiens, UniProt P18507+P34903); assay: SyncroPatch platform, PAM mode, GABAA α3/β3/γ2
Chain of human GABAA receptor α3/β3/γ2 (P34903 29-492): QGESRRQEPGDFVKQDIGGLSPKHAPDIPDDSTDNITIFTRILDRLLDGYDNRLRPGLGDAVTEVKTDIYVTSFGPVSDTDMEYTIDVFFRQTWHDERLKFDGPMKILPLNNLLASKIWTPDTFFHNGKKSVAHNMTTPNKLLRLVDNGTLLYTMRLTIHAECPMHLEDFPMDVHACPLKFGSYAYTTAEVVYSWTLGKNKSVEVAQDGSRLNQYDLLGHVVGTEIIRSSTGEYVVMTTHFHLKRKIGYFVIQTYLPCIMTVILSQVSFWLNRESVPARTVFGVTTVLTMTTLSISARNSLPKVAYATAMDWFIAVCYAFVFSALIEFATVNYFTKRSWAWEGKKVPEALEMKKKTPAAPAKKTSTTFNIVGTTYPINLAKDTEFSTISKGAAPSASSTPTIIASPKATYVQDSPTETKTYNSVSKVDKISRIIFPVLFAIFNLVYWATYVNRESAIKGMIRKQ
Chain of human GABAA receptor α3/β3/γ2 (P18507 40-475): as the sequence (P18507 40-475) above
Chain of human GABAA receptor α3/β3/γ2 (P28472 26-473 partner): as the sequence (P28472 26-473 partner) above

[4] = molecular target: human GABAA receptor α2/β3/γ2 (Homo sapiens, UniProt P18507+P47869); assay: SyncroPatch platform, PAM mode, GABAA α2/β3/γ2
Chain of human GABAA receptor α2/β3/γ2 (P47869 29-451): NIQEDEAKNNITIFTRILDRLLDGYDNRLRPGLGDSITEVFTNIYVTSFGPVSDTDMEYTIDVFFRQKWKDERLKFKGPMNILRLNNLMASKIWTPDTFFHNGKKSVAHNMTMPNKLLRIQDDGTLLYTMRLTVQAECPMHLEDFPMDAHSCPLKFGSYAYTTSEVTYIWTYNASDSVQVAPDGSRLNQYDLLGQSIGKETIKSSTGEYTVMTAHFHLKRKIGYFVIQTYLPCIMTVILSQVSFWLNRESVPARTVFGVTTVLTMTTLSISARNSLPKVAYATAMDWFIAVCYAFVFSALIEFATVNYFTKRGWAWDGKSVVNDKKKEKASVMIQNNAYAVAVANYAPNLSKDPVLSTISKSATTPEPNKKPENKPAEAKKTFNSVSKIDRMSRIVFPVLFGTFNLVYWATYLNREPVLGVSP
Chain of human GABAA receptor α2/β3/γ2 (P18507 40-475): as the sequence (P18507 40-475) above
Chain of human GABAA receptor α2/β3/γ2 (P28472 26-473 partner): as the sequence (P28472 26-473 partner) above

[5] = Stability of solutions/suspensions at room temperature; format: physicochemical
Description: The dosage forms provided herein may be prepared and placed in a container for storage at ambient or elevated temperature. […] This is beneficial because transportation of commercially viable dosage forms may benefit from stability at temperatures greater than those requiring refrigeration or sub-freezing environments during transportation and storage at the site of use.

[6] = system: memory (Visual Verbal Learning Task); format: in vivo, human (healthy volunteers); details: oral QD 12 days; dose and day in value
Experimental: (§2) A clinical study was developed to evaluate safety, tolerability, pharmacokinetics, and pharmacodynamics of Compound 1 at plasma steady-state in 40 healthy human volunteers. […].
(§3) Pharmacodynamic analyses included the NEUROCART® assessments, cognitive assessments Visual Verbal Learning Task (VVLT), and quantitative electroencephalography (qEEG). All PD analyses were based on the PD Analysis Set. For all PD endpoints, the baseline was calculated as average of the Day −1 measurements.
(§4) NEUROCART®, VVLT, and qEEG assessments were listed and summarized (absolute and change from baseline) using descriptive statistics at baseline and at each post-baseline time point. To establish whether significant treatment effects could be detected on the repeatedly measured NEUROCART® parameters, each parameter was analyzed with a mixed model analysis of covariance (ANCOVA) with treatment, time, and treatment by time as fixed factors, participant as a random factor, and the (average) baseline measurement as a covariate.

[7] = system: CNS function (NEUROCART); format: in vivo, human (healthy volunteers)
Experimental: as §2, §3, §4

[8] = system: anxiety (elevated plus maze); assay: Elevated plus maze (EPM)
[9] = system: EEG power; assay: Quantitative electroencephalography (qEEG); format: in vivo, human (healthy volunteers)
Experimental: as §1, §3, §4

[10] = oral QD 12 days, dose and day in value
[11] = participants receiving Compound 1

SMILES: CC(C)(O)c1cnn2c(-c3ccc(F)c(-c4c(F)cccc4C#N)c3)cnc2n1 [Compound 1, 2′,6-difluoro-5′-(3-(2-hydroxypropan-2-yl)imidazo[1,2-b][1,2,4]triazin-7-yl)-[1,1′-biphenyl]-2-carbonitrile]
- MOAA/S score ([1]; 5.0 mg, 1 participant): 2
- sedation versus placebo by MOAA/S ([1]; 0.5-5.0 mg oral QD 12 days): little to no impairment of alertness and no frank sedation; also recorded: did not demonstrate a difference from placebo in sedation
- MOAA/S score ([1]; other participants at 5.0 mg and all other Cohorts): above 3
- Cl- flux / activity at α1 subtype [2]: blocking α1; also recorded: did not drive Cl-flux; also recorded: does not potentiate the α1 GABAA receptor subtype
- EC50 [3]: 2.47 nM
- Emax [3]: 113%
- EC50 [4]: 0.82 nM
- Emax [4]: 89%
- stability of standard solutions ([5]; 20 μg/mL): 6 days
- stability of samples in 0.5% TYLOSE MH 300 ([5]; 0.12 to 7.2 mg/mL): 8 days
- delayed word recognition [6]: Significantly decreased delayed word recognition but not immediate recall or delayed recall at 2.0 mg on Day 12, but not on Day 1
- immediate recall and delayed recall/recognition [6]: Significantly decreased immediate recall and decreased delayed recall/recognition at 5.0 mg on Day 1, but not on Day 12
- reaction time for delayed word recognition [6]: Significantly increased reaction time for delayed word recognition at 1.5 mg on Day 1, but not on Day 12; also recorded: inconsistent effects on reaction time for delayed word recognition up to 1.5 mg
- consistency of effects on SPV, body sway, VAS perception and feeling high ([7]; 1.5 mg Cohort): less consistent effects
- VAS mood or VAS calmness ([7]; oral QD 12 days, any dose, Day 1 or Day 12): Did not affect VAS mood or VAS calmness at any dose on either Day 1 or Day 12
- VAS external perception and VAS internal perception (Bowdle) [7, 10]: remained unaffected at 1.0 mg, 2.0 mg, and 5.0 mg but significantly increased at 1.5 mg on Day 1 and Day 12
- VAS feeling high (Bowdle) [7, 10]: significantly increased at 0.5 mg on Day 1 and Day 12, and at 1.5 mg on Day 12 with no apparent dose-related effect
- body sway [7, 10]: significantly increased body sway at 5.0 mg on Day 1; also recorded: Significantly increased body sway at the highest dose level of 5.0 mg on Day 1 but not on Day 12; also recorded: significantly increased body sway at 5.0 mg acutely
- left pupil/iris ratio [7, 10]: Significantly reduced left pupil/iris ratio at 1.0 mg, 1.5 mg, and 5.0 mg on Day 1 but not on Day 12
- saccadic reaction time [7, 10]: Significantly increased saccadic reaction time only at the highest dose level of 5.0 mg on Day 1, but not on Day 12
- smooth pursuit eye movements [7, 10]: Significantly decreased smooth pursuit eye movements at 0.5 mg, 1.5 mg, and 5.0 mg on Day 1 but not on Day 12
- moderate somnolence (2.0 mg and 5.0 mg): Two TEAEs of moderate somnolence
- moderate balance disorder (5.0 mg): 1 TEAE of moderate balance disorder
- concomitant medications or physical examination findings (0.5-5.0 mg oral QD 12 days): No consistent differences
- mean QTcF increase (0.5-5.0 mg oral QD 12 days): No clinically relevant increase
- severe TEAEs or SAEs (0.5-5.0 mg oral QD 12 days): No severe TEAEs or serious adverse events (SAEs) occurred
- suicidal ideation or behaviors (C-SSRS) (0.5-5.0 mg oral QD 12 days): No positive responses
- participants with TEAEs of moderate severity (5/40 participants): 12.5%
- participants with TEAEs of mild severity (34/40 participants): 85.0%
- number of TEAEs of moderate severity (in 5/40 participants): 6
- dizziness [11]: 20.0%
- postural dizziness [11]: 30.0%
- incidence of somnolence versus placebo (pooled placebo): approximately twice as high as the placebo-treated participants
- anxiolytic effect, chronic dosing ([8]; once daily for fourteen days, tested 1 hr after last dose): anxiolytic-like in rodents after acute and sub-chronic (14 days) dosing without any loss of effect
- effect compared with reference anxiolytic chlordiazepoxide ([8]; oral): equivalent to what was demonstrated by the reference anxiolytic compound, chlordiazepoxide
- distance traveled in the open arms ([8]; oral, 0.1, 0.3 and 1 mg/kg): increased distance traveled in the open arms
- EEG gamma-power Pz-O2 (eyes open) ([9]; any dose level): No treatment effect on Pz-O2 (eyes open) for any dose level
- EEG beta-power Pz-O1 or Pz-O2 (eyes open and closed) ([9]; any dose, Day 1 or Day 12): No treatment effect on Pz-O1 or Pz-O2 (eyes open and eyes dosed) at any dose on Day 1 or Day 12
- EEG alpha-power Fz-Cz (eyes closed) ([9]; dose and day in value): Significant decrease in Fz-Cz (eyes dosed) at 1.5 mg, 2.0 mg, and 5.0 mg on Day 12
- EEG alpha-power Fz-Cz (eyes open) ([9]; dose and day in value): Significant decrease in Fz-Cz (eyes open) at 1.5 mg on Day 1 and at 1.5 mg, 2.0 mg, and 5.0 mg on Day 12
- EEG alpha-power Pz-O1 (eyes closed) ([9]; dose and day in value): Significant decrease in Pz-O1 (eyes closed) at 1.5 mg on Day 1 and at 1.5 mg, 2.0 mg, and 5.0 mg on Day 12
- EEG alpha-power Pz-O1 (eyes open) ([9]; dose and day in value): Significant decrease in Pz-O1 (eyes open) at 1.5 mg, 2.0 mg, and 5.0 mg on Day 12
- EEG alpha-power Pz-O2 (eyes closed) ([9]; dose and day in value): Significant decrease in Pz-O2 (eyes dosed) at 1.5 mg, 2.0 mg, and 5.0 mg on Day 12
- EEG alpha-power Pz-O2 (eyes open) ([9]; dose and day in value): Significant decrease in Pz-O2 (eyes open) at 1.5 mg, 2.0 mg, and 5.0 mg on Day 12
- EEG beta-power Fz-Cz (eyes closed) ([9]; dose and day in value): Significant increase in Fz-Cz (eyes closed) at 2.0 mg and 5.0 mg on Day 1 but at none of the doses on Day 12
- EEG beta-power Fz-Cz (eyes open) ([9]; dose and day in value): Significant increase in Fz-Cz (eyes open) at 2.0 mg and 5.0 mg on Day 1 and at 0.5 mg, 2.0 mg, and 5.0 mg on Day 12
- EEG delta-power Fz-Cz (eyes closed) ([9]; dose and day in value): Significant decrease in Fz-Cz (eyes closed) at all dose levels on Day 12
- EEG delta-power Fz-Cz (eyes open) ([9]; dose and day in value): Significant decrease in Fz-Cz (eyes open) only at 1.0 mg on Day 12
- EEG delta-power Pz-O1 (eyes closed) ([9]; dose and day in value): Significant decrease in Pz-O1 (eyes closed) at 1.0 mg, 1.5 mg, 2.0 mg, and 5.0 mg on Day 12
- EEG delta-power Pz-O1 and Pz-O2 (eyes open) ([9]; dose and day in value): Significant decrease in Pz-O1 and Pz-O2 (eyes open) at 1.5 mg, 2.0 mg, and 5.0 mg on Day 12
- EEG delta-power Pz-O2 (eyes closed) ([9]; dose and day in value): Significant decrease in Pz-O2 (eyes closed) at all dose levels on Day 12
- EEG gamma-power Fz-Cz (eyes closed and eyes open) ([9]; dose and day in value): Significant increase in Fz-Cz (eyes closed and eyes open) at 2.0 mg on Day 1 and at 2.0 mg and 5.0 mg on Day 12
- EEG gamma-power Pz-O1 (eyes closed and eyes open) ([9]; dose and day in value): Significant decrease in Pz-O1 (eyes dosed and eyes open) at 1.5 mg, 2.0 mg, and 5.0 mg on Day 1
- EEG gamma-power Pz-O2 (eyes closed) ([9]; dose and day in value): No treatment effect on Pz-O2 (eyes closed) for any dose level except for 5.0 mg on Day 12
- EEG theta-power Fz-Cz (eyes closed and eyes open) ([9]; dose and day in value): Significant decrease in Fz-Cz (eyes closed and eyes open) at 1.0 mg, 1.5 mg, 2.0 mg, and 5.0 mg on Day 12
- EEG theta-power Pz-O1 and Pz-O2 (eyes closed and eyes open) ([9]; dose and day in value): Significant decrease in Pz-O1 and Pz-O2 (eyes closed and eyes open) at 1.5 mg, 2.0 mg, and 5.0 mg on Day 12
- most consistent effects on qEEG ([9]; doses >1.5 mg, Day 12): decreased alpha- and theta-power on Day 12 that were suggestive of dose- or concentration-dependence and target engagement, but the increased beta-power on Day 12 did not suggest dose- or concentration-dependence; also recorded: decreased alpha- and theta-power, and increased beta-power

Source: patent US20260345621A1, “GABAA RECEPTOR MODULATORS AND USES THEREOF” (Engrail Therapeutics, Inc., priority 2022, published 2026)
